Assay results taken from US9493396B2, “Substituted naphthalene compounds as calcium sensing receptor modulators” (LUPIN ATLANTIS HOLDINGS SA, priority 2013, dated 2016).
Where a name gives a salt, the structure may show the parent alone.

These compounds were tested against T1, Calcium sensing receptor (hCaSR) (Homo sapiens, UniProt P41180) (assay: In-vitro assay of calcimimetics through modulation of calcium sensing receptor (intracellular calcium increase, FLIPR)). Settings: stably transfected HEK293 cells expressing hCaSR; Fluo4NW dye; 0.3 mM CaCl2; 8-point assay; read-out: EC50 in range.
T1 construct: expressed in transfected cells; host or cells: HEK293 (stably transfected)
T1 sequence (P41180 20-1078): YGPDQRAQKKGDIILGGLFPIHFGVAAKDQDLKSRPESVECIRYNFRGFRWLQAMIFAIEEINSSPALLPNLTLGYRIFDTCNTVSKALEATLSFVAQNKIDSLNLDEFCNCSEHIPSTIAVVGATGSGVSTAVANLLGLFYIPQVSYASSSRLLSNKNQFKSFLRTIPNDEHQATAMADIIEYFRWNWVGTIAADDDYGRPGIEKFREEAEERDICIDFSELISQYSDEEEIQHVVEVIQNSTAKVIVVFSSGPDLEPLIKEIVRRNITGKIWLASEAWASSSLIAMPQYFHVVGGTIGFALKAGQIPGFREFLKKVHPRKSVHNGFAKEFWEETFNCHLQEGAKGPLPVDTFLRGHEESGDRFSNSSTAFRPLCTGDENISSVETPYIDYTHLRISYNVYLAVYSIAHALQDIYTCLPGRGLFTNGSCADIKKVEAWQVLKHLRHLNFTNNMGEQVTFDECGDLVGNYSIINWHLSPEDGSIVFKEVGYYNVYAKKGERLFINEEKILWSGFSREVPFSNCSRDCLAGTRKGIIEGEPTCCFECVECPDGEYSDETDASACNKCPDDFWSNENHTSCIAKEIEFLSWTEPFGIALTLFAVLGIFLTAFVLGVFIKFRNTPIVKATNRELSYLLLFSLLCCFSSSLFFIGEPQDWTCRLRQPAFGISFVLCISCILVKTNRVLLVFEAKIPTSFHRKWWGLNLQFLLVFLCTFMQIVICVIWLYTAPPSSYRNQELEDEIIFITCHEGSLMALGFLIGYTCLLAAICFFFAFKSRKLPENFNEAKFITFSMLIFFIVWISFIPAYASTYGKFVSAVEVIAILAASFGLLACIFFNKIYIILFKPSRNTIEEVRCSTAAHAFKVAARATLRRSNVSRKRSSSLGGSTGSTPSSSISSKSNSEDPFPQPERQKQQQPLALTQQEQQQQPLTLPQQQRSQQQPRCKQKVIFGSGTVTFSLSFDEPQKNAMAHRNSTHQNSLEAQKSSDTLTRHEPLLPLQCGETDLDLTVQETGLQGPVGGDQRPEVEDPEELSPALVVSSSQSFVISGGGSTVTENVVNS
Format: cell-based
Method: In-Vitro Assay Method of Calcimimetics Through Modulation of Calcium Sensing Receptor (CaSR): The ability of the compounds to modulate Calcium sensing receptor is determined by measuring an increase in intracellular calcium [Ca^2+]i. Stably transfected HEK293 cells expressing hCaSR_pTriEx-3 hygro vector are developed. Cells are grown overnight on a 96-well plate to 80% confluency in Ham's F12 containing 20% FBS at 37° C., 5% CO2. Subsequently, cells are washed extensively with 20 mM HEPES buffer containing 126 mM […], 1 mM MgCl2 and 4 mM KCl to remove serum components that might interfere with the assay. Cells are loaded with calcium sensing Fluo4NW dye in HEPES base buffer containing 0.1% BSA and 1 mg/ml glucose for 30 minutes to measure changes in intracellular calcium. The activities of the compounds are measured in FLIPR using 0.3 mM CaCl2 in 20 mM HEPES base buffer. The effectiveness of the compound to modulate receptor activity is determined by calculating the EC50 responses for that compound in an 8-point assay and plotted using GraphPad Prism 5.

EC50 [µM]	SMILES
0.02 to 0.05	CC(C)OC(=O)CCc1cc(F)cc(-c2cc(C(C)N[C@H](C)c3cccc(Cl)c3)cc3ccccc23)c1 (mixture of isomers) [Example 153, Isopropyl 3-(3-(3-(1-(((R)-1-(3-chlorophenyl)ethyl)amino)ethyl)naphthalen-1-yl)-5-fluorophenyl) propanoate hydrochloride]
0.05 to 0.4	Cc1ccc(-c2cc(C(C)N[C@H](C)c3cccc(Cl)c3)cc3ccccc23)cc1C(=O)O (stereo partly drawn) [Example 117, 5-(3-(1-(((R)-1-(3-Chlorophenyl)ethyl)amino)ethyl)naphthalen-1-yl)-2-methylbenzoic acid hydrochloride]
0.02 to 0.05	Cc1ccc(-c2cc(CN[C@H](C)c3cccc4ccccc34)cc3ccccc23)cc1C(=O)O [Example 89, (R)-2-Methyl-5-(3-(((1-(naphthalen-1-yl)ethyl)amino)methyl)naphthalen-1-yl) benzoic acid]
0.02 to 0.05	COc1cccc([C@@H](C)NCc2cc(-c3cccc(C(=O)O)c3F)c3ccccc3c2)c1 [Example 103, (R)-2-Fluoro-3-(3-(((1-(3-methoxyphenyl)ethyl)amino)methyl)naphthalen-1-yl)benzoic acid hydrochloride]
< 0.02	CC(N[C@H](C)c1cccc(Cl)c1)c1cc(-c2ccc(C3(F)COC3)cc2)c2ccccc2c1 (mixture of isomers) [Example 23, (1R)-1-(3-chlorophenyl)-N-(1-(4-(4-(3-fluorooxetan-3-yl)phenyl)naphthalen-2-yl)ethyl)ethanamine hydrochloride]
0.02 to 0.05	CC(N[C@H](C)c1cccc(Cl)c1)c1cc(-c2cc(F)cc(CCC(=O)O)c2)c2ccccc2c1 (mixture of isomers) [Example 156, 3-(3-(3-(1-(((R)-1-(3-Chlorophenyl)ethyl)amino)ethyl)naphthalen-1-yl)-5-fluorophenyl)propanoic acid hydrochloride]
0.05 to 0.4	Cc1ccc(-c2cc(CN[C@H](C)c3cccc(Cl)c3)cc3ccccc23)cc1C(=O)O [Example 94, (R)-5-(3-(((1-(3-Chlorophenyl)ethyl)amino)methyl)naphthalen-1-yl)-2-methylbenzoic acid hydrochloride]
0.05 to 0.4	CCC(N[C@H](C)c1cccc(OC)c1)c1cc(-c2ccc(C)c(C(=O)O)c2)c2ccccc2c1 (stereo partly drawn) [Example 149, 5-(3-(1-(((R)-1-(3-Methoxyphenyl)ethyl)amino)propyl)naphthalen-1-yl)-2-methylbenzoic acid hydrochloride]
0.02 to 0.05	COc1cccc([C@@H](C)NC(C)c2cc(-c3ccc(CCC(=O)O)c(F)c3)c3ccccc3c2)c1 (stereo partly drawn) [Example 136, 3-(2-Fluoro-4-(3-(1-(((R)-1-(3-methoxyphenyl)ethyl)amino)ethyl)naphthalen-1-yl)phenyl) propanoic acid hydrochloride]
0.05 to 0.4	COc1cccc([C@@H](C)NC(C)c2cc(-c3ccc(S(C)(=O)=O)cc3)c3ccccc3c2)c1 (stereo partly drawn) [Example 17, (1R)-1-(3-Methoxyphenyl)-N-(1-(4-(4-(methylsulfonyl)phenyl)naphthalen-2-yl)ethyl)ethanamine hydrochloride]
< 0.02	COc1cccc([C@@H](C)NCc2cc(-c3ccc(F)c(C(=O)O)c3)c3ccccc3c2)c1 [Example 97, (R)-2-Fluoro-5-(3-(((1-(3-methoxyphenyl)ethyl)amino)methyl)naphthalen-1-yl)benzoic acid hydrochloride]
0.05 to 0.4	CCCOc1cccc([C@@H](C)NCc2cc(-c3ccc(C)c(C(=O)O)c3)c3ccccc3c2)c1 [Example 92, (R)-2-Methyl-5-(3-(((1-(3-propoxyphenyl)ethyl)amino)methyl)naphthalen-1-yl)benzoic acid hydrochloride]
0.02 to 0.05	CC(N[C@H](C)c1cccc2ccccc12)c1cc(-c2ccc(C(F)(F)F)cc2)c2ccccc2c1 (single isomer, unassigned) [Example 9a, hydrochloride]
0.02 to 0.05	COc1cccc([C@@H](C)NCc2cc(-c3ccc(Cl)c(C(=O)O)c3)c3ccccc3c2)c1 [Example 99, (R)-2-Chloro-5-(3-(((1-(3-methoxyphenyl)ethyl)amino)methyl)naphthalen-1-yl)benzoic acid hydrochloride]
0.05 to 0.4	CCC(N[C@H](C)c1cccc(OC)c1)c1cc(-c2cc(F)cc(CCC(=O)O)c2)c2ccccc2c1 (stereo partly drawn) [Example 148, 3-(3-Fluoro-5-(3-(1-(((R)-1-(3-methoxyphenyl)ethyl)amino)propyl)naphthalen-1-yl)phenyl)propanoic acid hydrochloride]
0.05 to 0.4	COc1cc([C@@H](C)NCc2cc(-c3ccc(C)c(C(=O)O)c3)c3ccccc3c2)ccc1F [Example 93, (R)-5-(3-(((1-(4-Fluoro-3-methoxyphenyl)ethyl)amino)methyl)naphthalen-1-yl)-2-methylbenzoic acid hydrochloride]
0.05 to 0.4	COc1cccc([C@@H](C)NCc2cc(-c3ccc(C(C)C)c(C(=O)O)c3)c3ccccc3c2)c1 [Example 105, (R)-2-Isopropyl-5-(3-(((1-(3-methoxyphenyl)ethyl)amino)methyl)naphthalen-1-yl)benzoic acid hydrochloride]
< 0.02	COc1cccc([C@@H](C)NC(C)c2cc(-c3ccc(OC(F)(F)F)cc3)c3ccccc3c2)c1 (stereo partly drawn) [Example 19, (1R)-1-(3-Methoxyphenyl)-N-(1-(4-(4-(trifluoromethoxy)phenyl)naphthalen-2-yl)ethyl)ethanamine hydrochloride]
0.05 to 0.4	COc1cccc([C@@H](C)NC(C)c2cc(-c3ccc(C(=O)O)c(Cl)c3)c3ccccc3c2)c1 (stereo partly drawn) [Example 121, 2-Chloro-4-(3-(1-(((R)-1-(3-methoxyphenyl)ethyl)amino)ethyl)naphthalen-1-yl)benzoic acid hydrochloride]
< 0.02	CCOc1cccc([C@@H](C)NCc2cc(-c3ccc(F)c(C(=O)O)c3)c3ccccc3c2)c1 [Example 98, hydrochloride]
< 0.02	CC(N[C@H](C)c1cccc(Cl)c1)c1cc(-c2cccc(C(F)(F)F)c2)c2ccccc2c1 (stereo partly drawn) [Example 14, (1R)-1-(3-Chlorophenyl)-N-(1-(4-(3-(trifluoromethyl)phenyl)naphthalen-2-yl)ethyl)ethanamine hydrochloride]
< 0.02	CC(N[C@H](C)c1cccc(Cl)c1)c1cc(-c2ccc(OC(F)(F)F)cc2)c2ccccc2c1 (stereo partly drawn) [Example 20, (1R)-1-(3-Chlorophenyl)-N-(1-(4-(4-(trifluoromethoxy)phenyl)naphthalen-2-yl)ethyl)ethanamine hydrochloride]
< 0.02	C[C@@H](NCc1cc(-c2cccc(C(F)(F)F)c2)c2ccccc2c1)c1cccc2ccccc12 [Example 3, (R)-1-(Naphthalen-1-yl)-N-((4-(3-(trifluoromethyl)phenyl)naphthalen-2-yl)methyl)ethanamine hydrochloride]
0.05 to 0.4	COCCOc1cccc([C@@H](C)NCc2cc(-c3ccc(F)c(C(=O)O)c3)c3ccccc3c2)c1 [Example 113, (R)-2-Fluoro-5-(3-(((1-(3-(2-methoxyethoxy)phenyl)ethyl)amino)methyl)naphthalen-1-yl) benzoic acid hydrochloride]
0.05 to 0.4	Cc1ccc(-c2cc(CN[C@H](C)c3cccc(OCC(F)F)c3)cc3ccccc23)cc1C(=O)O [Example 95, (R)-5-(3-(((1-(3-(2,2-Difluoroethoxy)phenyl)ethyl)amino)methyl)naphthalen-1-yl)-2-methylbenzoic acid hydrochloride]
0.05 to 0.4	COc1cccc([C@@H](C)NC(C)c2cc(-c3ccc(C(=O)O)cc3)c3ccccc3c2)c1 (stereo partly drawn) [Example 119, 4-(3-(1-(((R)-1-(3-Methoxyphenyl)ethyl)amino)ethyl)naphthalen-1-yl)benzoic acid hydrochloride]
